According to patent US20260234173A1, “STRUCTURED MOLECULAR VECTORS FOR ANTI-INFLAMMATORY COMPOUNDS AND USES THEREOF” (Universite Claude Bernard Lyon 1, priority 2019, published 2026):

Assays:
[1] = test system: hippocampal LTP in rats subjected to Pilo-SE; assay: Hippocampal LTP in slices from Pilo-SE rats treated in vivo (i.p. or per os); design: species or system rat
Experimental: (§1) In this experiment we used male Sprague-Dawley rats (ENVIGO, Netherlands). Pups were received at 14 day-old (postnatal day 14 (P14)) with their foster mother, and were maintained in groups of 10 in plastic cages (405 mm×255 mm×197 mm) with free access to food and water. All animal procedures are in accordance with the guidelines of the Animal Care and Use Committee of the University Claude Bernard Lyon 1.
(§2) All injected solutions were prepared in sterile saline (0.9% w/v). At weaning (postnatal day 20 (P20)), Sprague-Dawley male rat pups were first injected i.p. with lithium chloride (127 mg/Kg; Sigma-Aldrich), to decrease the dose of pilocarpine needed to trigger Status Epilepticus (SE). Scopolamine methylnitrate (1 mg/Kg; Sigma-Aldrich) was injected s.c. 18 h later, to alleviate peripheral cholinergic adverse side effects. Pilocarpine hydrochloride (25 mg/Kg; Sigma-Aldrich) was injected i.p. 30 min later, to induce SE. […] The rats were placed on a heated pad, under continuous observation, until they recovered from sedation. Following recovery, the rats were returned to the nursing mother until P23. Control rats only received saline injections. All rats were then housed in groups of 10 and weighed daily, during the 5 following days, to control for food intake, and then twice weekly until the end of experiment (three weeks post SE).
(§3) At P28-38, Sprague-Dawley rats were anesthetized with isoflurane, the forebrain was removed and placed in ice cold standard artificial cerebrospinal fluid (ACSF), consisting of (in mM): 124 NaCl, 5 KCl, 1.25 Na2HPO4, 2 MgSO4, 2 CaCl2), 26 NaHCO3, supplemented with 10 D-glucose, and bubbled with 95% O2 and 5% CO2. Hippocampal transverse slices were cut into 350 μm thick sections, using a vibratome (Leica VT1000S), and incubated in ACSF at room temperature for at least 1 h, before the transfer to the recording chamber. The ACSF used for perfusion was supplemented with picrotoxin (100 μM; Sigma-Aldrich), to block GABA-A receptors and therefore to facilitate the induction of NMDA receptors-dependent Long-Term Potentiation (LTP). CA1 pyramidal cells were visualized with a Zeiss Axioskop 2, equipped with a X40 objective, using infrared video microscopy and differential interference contrast optics. Whole-cell recordings from pyramidal neurons in the CA1 layer were obtained with patch electrodes, which were filled with a solution containing (in mM): 120 potassium gluconate, 20 KCl, 0.2 EGTA, 2 MgCl2, 10 HEPES, 4 Na2ATP, 0.3 Tris-GTP and 14 mM phosphocreatine (pH 7.3, adjusted with KOH). Drugs were applied in the bath of the hippocampal slices. Electrode resistances ranged from 3-5 MΩ. Series resistance was continually monitored, and experiments were discarded if it changed by >20%.
Capillary glass pipettes filled with ACSF and connected to an Iso-Flex stimulus isolation unit (A.M.P.I.) were placed in stratum radiatum, to evoke excitatory postsynaptic potentials (EPSPs) in CA1 pyramidal neurons. Cells were held at −70 mV to record EPSPs, and the stimulation strength was set to evoke EPSPs between 5-8 mV. LTP was induced by the theta burst pairing (TBP) protocol, which consisted of EPSPs paired with single back-propagating action potentials (b-APs), timed so that the b-AP (~15 ms delay) occurred at the peak of the EPSPs, as measured in the soma. A single burst contained five pairs delivered at 100 Hz and ten bursts were delivered at 5 Hz per sweep. Three sweeps were delivered at 10 s intervals for a total of 30 bursts (150 b-AP-EPSP pairs). The b-APs were elicited by direct somatic current injection (1 ms, 1-2 nA). This induction protocol was always applied within 20 min of achieving whole-cell configuration, to avoid “wash-out” of LTP.

NR8383 cells = conditions: LPS 100 ng/mL; compound 10, 100, 500, 1,000 nM within <2 min after LPS; 5 hours
Experimental: NR8383 cells were seeded at 53,000 cells/cm^2 in T75 flasks, the medium consisted in Ham's F12K medium completed with 1% pen/strep, and 15% fetal bovine serum. When they reached confluence, they were treated with LPS (Sigma, ref 055: B55) at the concentration of 100 ng/mL, and, within less than 2 min after, with one of the following condition: DECA-EA-Pn at 10, 100, 500 or 1,000 nM, or EPA-EA-Pn at 10, 100, 500 or 1,000 ng/mL. Cells were harvested 5 hours later, and the level of IL-6 mRNA was measured by RT-qPCR as in B.2.1.4, with primers listed in table 1.

[2] = test system: SE-induced neuroinflammation (hippocampus and ventral limbic region); assay: Neuroinflammatory response induced by status epilepticus in rats, per os SSL-X1; format: in vivo, rat; conditions: 100 mg/Kg per os 1 h after onset of SE; hippocampus and ventral limbic region 24 h after SE; 21-day-old rats
From the text: In these experiments, 21-day-old Sprague Dawley rats (ENVIGO, The NETHERLAND) were subjected to pilocarpine-induced status epilepticus (SE) as described below in details (§ B.3). Three groups of rats were constituted: (i) CTRL-NaCl, i.e. control rats that just received NaCl each time a treatment was given in the other groups of rats; (ii) SE-NaCl, i.e. rats that were subjected to SE and that received NaCl per os instead of SSL-X1; (iii) SE-SSL-X1, i.e. rats that were subjected to SE and that were administered with SSL-X1 vector (100 mg/Kg) per os 1 h after the onset of SE. The vectors were dissolved in 100 μL of NaCl. Due to their hydrophobic nature, the preparation was emulsified until complete dissolution of the lipid vector. Twenty-four hours later, rats were sacrificed using a lethal injection of pentobarbital (250 mg/Kg; i.p.) and brain tissues, i.e. the hippocampus (HI) and the ventral limbic region (VLR, which includes the amygdala, the piriform and the insular agranular cortices) were collected and processed as mentioned above (§ B.2.2). Analysis of the expression level of the key markers of neuroinflammation was performed by RT-qPCR as described above using the primer pairs shown in Table 1. […]

[3] = Metabolic fate of SSL-X1 in the digestive tract of rats after per os administration; format: in vivo; conditions: 227 μg lipid phosphorus per os, sacrificed 5, 8 and 36 hours after administration
[4] = test system: CA1 pyramidal neurons in hippocampal slices from rats subjected to Pilo-SE; assay: Hippocampal LTP in slices from Pilo-SE rats, compound perfused in the bath (ex vivo); format: cell-based, rat; conditions: slices 1-2 weeks post Pilo-SE
Experimental: as §1, §2, §3
Capillary glass pipettes filled with ACSF and connected to an Iso-Flex stimulus isolation unit (A.M.P.I.) were placed in stratum radiatum, to evoke excitatory postsynaptic potentials (EPSPs) in CA1 pyramidal neurons. Cells were held at −70 mV to record EPSPs, and the stimulation strength was set to evoke EPSPs between 5-8 mV. LTP was induced by the theta burst pairing (TBP) protocol, which consisted of EPSPs paired with single back-propagating action potentials (b-APs), timed so that the b-AP (~15 ms delay) occurred at the peak of the EPSPs, as measured in the soma. A single burst contained five pairs delivered at 100 Hz and ten bursts were delivered at 5 Hz per sweep. Three sweeps were delivered at 10 s intervals for a total of 30 bursts (150 b-AP-EPSP pairs). […]

[5] = Hydrosolubility compared with synaptamide; format: physicochemical
[6] = test system: Pilo-SE-induced inflammation in the hippocampus; assay: Resolution of inflammation in hippocampus following pilocarpine-induced status epilepticus (Pilo-SE); format: in vivo, rat; conditions: 2 mg/kg i.p. after 2 h of SE; hippocampus 9 h post-SE; 42-day-old rats
Experimental: Male Sprague-Dawley rats (Envigo, The Netherlands) were subjected to Pilo-SE at 42 days of age (185 g). SE was triggered by pilocarpine hydrochlorate (350 mg/kg, i.p.), 30 min after the administration of scopolamine methylnitrate (1 mg/kg, s.c.), used to reduce peripheral side effects of pilocarpine. After 2 h of continuous SE, rats were administered with diazepam (10 mg/kg, i.p.) to stop SE, and then immediately treated with SYN (2 mg/kg, i.p.), SYN-Pn (2 mg/kg, i.p.) in 300 μL of NaCl. Non-treated rats subjected to Pilo-SE were injected with 300 μL of NaCl (i.p.) instead of SYN or SYN-Pn. All rats received a second administration of diazepam (5 mg/kg, s.c.), 1 h after the first one, and sacrificed 9 h post-SE. The brains were collected, the hippocampus microdissected on ice, the RNA extracted and RT-qPCR performed as described above using the primer pairs shown in Table 1. The time at which rats were sacrificed was chosen based on our preliminary experiments that allowed us to determine that the peak of brain inflammation was observed 7-12 hours after the onset of SE.

[7] = test system: LPS-induced neuroinflammation (hippocampus and neocortex); assay: LPS-induced neuroinflammation in vivo in rats (RT-qPCR, Neuroinflammation Index); design: species or system rat; conditions: 6 h post-LPS
[8] = test system: epileptic rats (post Pilo-SE); assay: Morris water maze (MWM) spatial learning in epileptic rats; format: in vivo, rat; conditions: epileptic rats injected during the first week post-SE, tested 5 weeks post-SE, versus saline
Experimental: All injected solutions were prepared in sterile saline (0.9% w/v). At weaning (postnatal day 20 (P20)), Sprague-Dawley male rat pups were first injected i.p. with lithium chloride (127 mg/Kg; Sigma-Aldrich), to decrease the dose of pilocarpine needed to trigger Status Epilepticus (SE). Scopolamine methylnitrate (1 mg/Kg; Sigma-Aldrich) was injected s.c. 18 h later, to alleviate peripheral cholinergic adverse side effects. Pilocarpine hydrochloride (25 mg/Kg; Sigma-Aldrich) was injected i.p. 30 min later, to induce SE. After 30 min of continuous behavioral SE, diazepam (Valium®, Roche) was injected i.p. at 10 mg/Kg, to promote survival and initiate cessation of behavioral seizures, that completely stopped after a second s.c. injection of diazepam, given 90 min later at the dose of 5 mg/Kg. The rats were placed on a heated pad, under continuous observation, until they recovered from sedation. Following recovery, the rats were returned to the nursing mother until P23. Control rats only received saline injections. […]
Spatial learning ability was measured at 5 weeks post-SE by the Morris water maze (MWM). […]
The statistical analyses were performed using SigmaPlot software version 12. […] For MWM test, data were analyzed by two-way repeated measures ANOVA followed by Fisher LSD post hoc tests to compare differences between groups at several time points.

[9] = 5 mg/kg i.p., 1 h after cessation of SE then daily
[10] = 2 mg/kg i.p., 1 h after cessation of SE then daily

## CCCCCCCCCC(=O)O.NCCO.O=[PH](O)O [DECA-EA-Pn, decanoic acid ethanolamine phosphonate]
[1]; [9]
  LTP magnitude (EPSP amplitude, % of baseline): 130.3±7%
NR8383 cells
  induction of IL-6 mRNA levels: significantly reduced

## CC/C=C\C/C=C\C/C=C\C/C=C\C/C=C\C/C=C\CCC(=O)O [DHA, docosahexaenoic acid, reference compound]
[1]; per os, dose equivalent to 100 mg/kg of Synaptamide phosphonate
  LTP magnitude (EPSP amplitude, % of baseline): 129.5±10.2%

## CCC=CCC=CCC=CCC=CCC=CCC=CCCC(=O)NC(COP(=O)(O)CCN)C(O)C=CCCCCCCCCCCCCC (stereo not shown) [SSL-X1]
[2]
  induction of MCP1, IL6 and COX-2 transcripts after SE: partially prevented
[3]
  distribution of SSL-X1 along the intestinal tract: able to reach the colon

## CCC=CCC=CCC=CCC=CCC=CCC=CCCC(=O)NCCP(=O)(O)OCC(N)C(O)C=CCCCCCCCCCCCCC (stereo not shown) [SSLX2]
[1]; per os, dose equivalent to 10 mg/kg of Synaptamide phosphonate
  LTP magnitude (EPSP amplitude, % of baseline): 135.6±9.9%
[1]; per os, dose equivalent to 30 mg/kg of Synaptamide phosphonate
  LTP magnitude (EPSP amplitude, % of baseline): 172.9±6.5%

## CC/C=C\C/C=C\C/C=C\C/C=C\C/C=C\C/C=C\CCC(=O)NCCOP(=O)(O)O [synaptamide phosphate]
[1]; [10]
  LTP magnitude (EPSP amplitude, % of baseline): 168.9±7.1%
[1]; [9]
  LTP magnitude (EPSP amplitude, % of baseline): 162.3±10.8%
[4]; bath application 100 nM
  LTP magnitude (EPSP amplitude, % of baseline): 144.5±9.39%
[5]
  hydrosolubility relative to synaptamide: more hydrosoluble than synaptamide

## CC/C=C\C/C=C\C/C=C\C/C=C\C/C=C\C/C=C\CCC(=O)NCCO [synaptamide, N-Docosahexaenoylethanolamine, reference compound]
[1]; [10]
  LTP magnitude (EPSP amplitude, % of baseline): 189.7±11.4%
[1]; [9]
  LTP magnitude (EPSP amplitude, % of baseline): 151.54±7.15%
[1]; 10 mg/kg i.p., 1 h after cessation of SE then daily
  LTP magnitude (EPSP amplitude, % of baseline): 195.2±8%
[4]; bath application 100 nM
  LTP magnitude (EPSP amplitude, % of baseline): 166.8±12.2%
[4]; bath application 400 nM
  LTP magnitude (EPSP amplitude, % of baseline): 164.2±20.5%
[6]
  induction of IL1β mRNA in response to Pilo-SE: reduced
[7]; 2 mg/Kg synaptamide equivalent i.p. one minute after LPS 1 mg/Kg, 21-day-old rats
  LPS-mediated induction of transcripts encoding neuroinflammatory markers: partially prevent
[7]; 2 mg/Kg synaptamide equivalent i.p. one minute after LPS
  reduction of the Neuroinflammatory Index measured both in the hippocampus and the neocortex: ~ 50%
[8]
  spatial learning in MWM (latency to find the platform): significantly increased spatial learning acquisition

## eicosapentaenoic acid ethanolamine phosphonate [EPA-EA-Pn]
[1]; [9]
  LTP magnitude (EPSP amplitude, % of baseline): 154.4±12.1%
NR8383 cells
  induction of IL-6 mRNA levels: significantly reduced
